# Reference: patent EP1881000A1, “Conjugates of 2-fluoro-2-deoxy-glucose and their uses as anti cancer agents” (INSTITUT NATIONAL DE LA SANTE ET DE LA RECHERCHE MEDICALE …, priority 2006, dated 2008)
# Tests used:
# [1] = Determination of the Maximum Tolerated Dose (MTD), acute toxicity after a single IP injection; format: in vivo, male OF1 mice; set-up: key to Clinical State Score (CSS) diarrhoea / Clinical State Score (CSS) rough coat / Clinical State Score (CSS) closed eyes / Clinical State Score (CSS) lethargy / Clinical State Score (CSS) total: per mouse 0 = absent, 1 = present per sign; summed over group; details: for Clinical State Score (CSS) closed eyes / Clinical State Score (CSS) diarrhoea / Clinical State Score (CSS) lethargy / Clinical State Score (CSS) rough coat / Clinical State Score (CSS) total: group sum; for Number of deaths (day): non-tumour bearing mice
# Procedure: (§1) Drugs were dissolved in a mixture of dimethylacetamide (Sigma) and oleic macrogolglycerides (Labrafil® M1944Cs, Gattefossé) (10:90%, vol/vol).
# Initially, the Maximum Tolerated Dose (MTD) after intraperitoneal (IP) administration was determinated.
# For MTD determination, study was conducted on male OF1 mice weighing about 30 g, 6-weeks old (Charles River, France). Groups of five to six mice received a single IP injection of each drug at variable doses according to the compound (see Tables 2, 3 and 4).
# Individual dose were based on the body weight of each mouse. All the mice received a constant injection volume of 250 µL per 25 g of body weight. A group of seven control mice received the vehicle.
# After IP injection, mice were weighed and observed every two days over a 2 week-period to evaluate general clinical state. For each animal, a clinical state score (CSS) was calculated based on the absence (value 0) or presence (value 1) of diarrhoea, lethargy, rough coat and closed eyes. CSS was then calculated per group by summing individual scores. Loss of weight and mortality were also recorded.
# B16 melanoma = test: Antitumour activity in B16-melanoma bearing mice, IP chemotherapy protocol; format: in vivo, C57BL6J male mice
# Procedure: as §1
# (§2) It is performed in tumour-bearing mice following an IP chemotherapy protocol.
# To establish B16 melanoma model, 3 x 10^5 B16F0 cells (ATCC, Manassas, USA; in vitro doubling time of 16 hours) were suspended in 100 µL of phosphate buffer solution (PBS®, life Technologies) and injected into the subcutaneous tissue of the right flank of C57BL6J male mice, 6-weeks-old (Charles River, France) on day zero.
# (§3) For both molecules and both animal models, treatment was initiated eight days post tumour grafting, when the tumours had reached a measurable size, corresponding to a calculated tumour weight (CTW) of 40 and 70 mg for B16 and CT-26 models respectively.
# (§4) Animals were then randomly divided in both treatment and control groups. […] Two dosages have been evaluated, MTD and 0.75 MTD
# (§5) Mice were weighed and observed every two days over a 30-day -period to evaluate general clinical state. Length and width of tumours were measured every two days over a 30-day-period using a dedicated slide calliper.
# (§6) The Calculated Tumour Weight (CTW) of each tumour was determined according to the formula: CTW(mg) = L × 1^2 /2 [formula] with L = length in mm and 1= width in mm.
# (§7) For subcutaneously growing tumours, antitumour activity is often assessed by using the log10 cell kill (LCK) which is calculated from the following formula: LCK = T-C value in days/3.32 × Td [formula] T is the median time (in days) required for the treatment group tumours to reach a predetermined CTW (e.g. 1000 mg). C is the median time (in days) required for the control group tumours to reach the same CTW. Td is the tumour volume doubling time (in days) estimated from the best fit straight line from a log-linear growth plot of the control group tumours in exponential growth.
# (§8) An increase in life span was defined by the ratio of the median survival of drug-treated mice (Mt) versus controls (Mc): a survival Mt/Mc equal or higher than 125 % was sought
# (§9) Mean weight loss of the group was used to evaluate treatment side effects. A mean body weight loss of greater 20% was considered to indicate an excessively toxic dosage.
# CT-26 colon carcinoma = test: Antitumour activity in CT-26 colon carcinoma bearing mice, IP chemotherapy protocol; format: in vivo, BALB/c male mice
# Procedure: as §1, §2
# To establish CT-26 colon carcinoma model, 2.5 x 10^5 CT26 cells (Dr Iaiaih J.Filder of MDAnderson Cancer Center, University of Texas; in vitro doubling time of 20 hours) were suspended in 100 µL of phosphate buffer solution and injected into the subcutaneous tissue of the right flank of BALB/c male mice, 6-weeks-old (Charles River, France) on day zero.
# as §3, §4, §5, §6
# Considering physiopathological features of the CT26 colon carcinoma model, mainly cachexy, drugs 21a and 40a, were assessed at the lowest dosage, i.e. 0.75 MTD administered at Day 8, Day 12, Day 16.
# The reference treatment chlorambucil was given at the MTD dosage according to the same schedule.
# as §7, §8, §9
# [2] = B16 melanoma, 75% MTD, IP D8, D12, D16
# [3] = B16 melanoma, MTD, IP D8, D12, D16
# [4] = CT26 colon carcinoma, 75% MTD, IP D8, D12, D16
compound,measurement,setting,value
"CC(=O)OC[C@H]1O[C@@H](NC(=O)CNC(=O)CCCc2ccc(N(CCCl)CCCl)cc2)[C@H](F)[C@@H](OC(C)=O)[C@@H]1OC(C)=O [Compound 21a, N-[2-(3,4,6-tri-O-acetyl-2-deoxy-2-fluoro-β-D-glucopyranosylamino)-2-oxoethyl]-4-{4-[bis(2-chloroethyl)amino]phenyl}butanamide]",dosage inducing high side effects (mainly diarrhoea),[1]; as early as Day 1 after IP administration,≥ 0.14 mmol/kg
same,MTD at 2 weeks,"[1]; male, OF1, mouse, in vivo, single IP administration, zero deaths, maximal weight loss 15 % at Day 1, CSS as low as possible",140 µmol/kg
same,Weight loss at day 1,[1]; single IP 0.07 mmol/kg,5.6%
same,Clinical State Score (CSS) closed eyes,[1]; single IP 0.07 mmol/kg,0
same,Clinical State Score (CSS) diarrhoea,[1]; single IP 0.07 mmol/kg,1
same,Clinical State Score (CSS) lethargy,[1]; single IP 0.07 mmol/kg,0
same,Clinical State Score (CSS) rough coat,[1]; single IP 0.07 mmol/kg,0
same,Clinical State Score (CSS) total,[1]; single IP 0.07 mmol/kg,1
same,Number of deaths (day),[1]; single IP 0.07 mmol/kg,0
same,Weight loss at day 1,[1]; single IP 0.14 mmol/kg,8.4%
same,Clinical State Score (CSS) closed eyes,[1]; single IP 0.14 mmol/kg,0
same,Clinical State Score (CSS) diarrhoea,[1]; single IP 0.14 mmol/kg,4
same,Clinical State Score (CSS) lethargy,[1]; single IP 0.14 mmol/kg,0
same,Clinical State Score (CSS) rough coat,[1]; single IP 0.14 mmol/kg,0
same,Clinical State Score (CSS) total,[1]; single IP 0.14 mmol/kg,4
same,Number of deaths (day),[1]; single IP 0.14 mmol/kg,0
same,Weight loss at day 1,[1]; single IP 0.18 mmol/kg,10.4%
same,Clinical State Score (CSS) closed eyes,[1]; single IP 0.18 mmol/kg,0
same,Clinical State Score (CSS) diarrhoea,[1]; single IP 0.18 mmol/kg,4
same,Clinical State Score (CSS) lethargy,[1]; single IP 0.18 mmol/kg,0
same,Clinical State Score (CSS) rough coat,[1]; single IP 0.18 mmol/kg,4
same,Clinical State Score (CSS) total,[1]; single IP 0.18 mmol/kg,8
same,Number of deaths (day),[1]; single IP 0.18 mmol/kg,1
same,Weight loss at day 1,[1]; single IP 0.21 mmol/kg,9.7%
same,Clinical State Score (CSS) closed eyes,[1]; single IP 0.21 mmol/kg,0
same,Clinical State Score (CSS) diarrhoea,[1]; single IP 0.21 mmol/kg,1
same,Clinical State Score (CSS) lethargy,[1]; single IP 0.21 mmol/kg,2
same,Clinical State Score (CSS) rough coat,[1]; single IP 0.21 mmol/kg,4
same,Clinical State Score (CSS) total,[1]; single IP 0.21 mmol/kg,7
same,Number of deaths (day),[1]; single IP 0.21 mmol/kg,1 (D1)
same,Number of deaths (day),[1]; single IP 0.28 mmol/kg,4 (D1)
same,Number of deaths (day),[1]; single IP 0.56 mmol/kg,4 (D1)
same,Number of deaths (day),[1]; single IP 0.76 mmol/kg,5 (D1)
same,doses inducing 100% mortality,[1]; single IP administration,0.76 mmol/kg
same,LCK,"B16 melanoma; B16 melanoma, dosage not stated",around 1.1
same,Life span of the animals,B16 melanoma; B16 melanoma-bearing mice,increased
same,Antitumour Efficacy,B16 melanoma; [2],+ (0.7 < LCK < 1.2 active drug (+))
same,LCK,B16 melanoma; [2],1.10
same,Survival Mt/Mc,B16 melanoma; [2],1.18
same,Weight loss (% max),B16 melanoma; [2],16%
same,Antitumour Efficacy,B16 melanoma; [3],+ (0.7 < LCK < 1.2 active drug (+))
same,LCK,B16 melanoma; [3],1.02
same,Survival Mt/Mc,B16 melanoma; [3],0.74
same,Weight loss (% max),B16 melanoma; [3],15.7%
same,antitumour activity according to the NCI criteria decisions,"B16 melanoma; B16 melanoma, in words",active
same,tumour growth inhibition (CTW time-course),"CT-26 colon carcinoma; CT26 carcinoma, 0,75 MTD IP at Day 8, 12 and 16, vs non-treated and vehicle-treated groups, p< 0.05",significant tumour growth inhibition
same,LCK,"CT-26 colon carcinoma; CT26 colon carcinoma, dosage not stated",around 1.1
same,Antitumour Efficacy,CT-26 colon carcinoma; [4],+ (0.7 < LCK < 1.2 active drug (+))
same,LCK,CT-26 colon carcinoma; [4],1.10
same,Survival Mt/Mc,CT-26 colon carcinoma; [4],1.5
same,Weight loss (% max),CT-26 colon carcinoma; [4],17.1%
same,antitumour activity according to the NCI criteria decisions,"CT-26 colon carcinoma; CT26 colon carcinoma, in words",active
same,Life span of the animals,CT-26 colon carcinoma; CT-26 colon carcinoma-bearing mice,increased
